Test [1] in a line: Antioxidant activity in pH 7.4 phosphate buffer assessed as H2O2 scavenging activity by measuring H2O2 decomposition at 1.34 to 10.72 uM by spectrophotometric analysis. Type of test: functional.
Test [2] in a line: Antioxidant activity in pH 7.4 potassium phosphate buffer assessed as CuCl2/ascorbic acid induced hydroxyl radical scavenging activity by measuring deoxyribose degradation product formation after 20 mins by thiobarbituric acid based absorbance analysis. Type of test: functional.
Test [3] in a line: Pro-oxidant activity in pH 7.4 potassium phosphate buffer assessed as reduction in CuCl2/ascorbic acid induced hydroxyl radical scavenging activity at > 66 uM in presence of deoxyribose by measuring deoxyribose degradation product formation after 20 mins by thiobarbituric acid based absorbance analysis.
The nature of test [4]: Antioxidant activity in pH 7.4 potassium phosphate buffer assessed as CuCl2/ascorbic acid induced hydroxyl radical scavenging activity at 66 uM in presence of deoxyribose after 20 mins by thiobarbituric acid based absorbance analysis (reference value: 0.617 +/- 0.02%). Type of test: functional.
Test [5] is described as follows: Antioxidant activity in pH 10 Tris-HCl buffer assessed as superoxide anion radical scavenging activity by measuring rate of epinephrine auto-oxidation by spectrophotometric analysis. Type of test: functional.
A short description of test [6]: Antioxidant activity in pH 7.4 phosphate buffer assessed as DPPH radical scavenging activity at 4 to 100 uM after 30 mins by spectrophotometric analysis (reference value: 0.811 +/- 0.02%). Type of test: functional. A general note: DPPH is a stable violet radical that fades when it is reduced.
Test [7] in a line: Antioxidant activity in pH 10 Tris-HCl buffer assessed as superoxide anion radical scavenging activity by measuring rate of epinephrine auto-oxidation at 10.72 uM by spectrophotometric analysis (reference value: 0.0186 +/- 0.004%). Type of test: functional.
Test [8] can be described thus: Reducing power of the compound assessed as reducing Fe3+ power at 80 uM using K3Fe(CN)6 in pH 6.6 phosphate buffer after 20 mins by spectrophotometric analysis.
The nature of test [9]: Antioxidant activity in pH 7.4 potassium phosphate buffer assessed as CuCl2/ascorbic acid induced hydroxyl radical scavenging activity by measuring trolox equivalent antioxidant capacity by measuring IC50 Trolox/IC50 test compound ratio in presence of deoxyribose by thiobarbituric acid based absorbance analysis. Type of test: functional.
A short description of test [10]: Pro-oxidant activity in pH 10 Tris-HCl buffer assessed as reduction in superoxide anion radical scavenging activity by measuring rate of epinephrine auto-oxidation at 10.72 uM by spectrophotometric analysis.
A short description of test [11]: Antioxidant activity in pH 10 Tris-HCl buffer assessed as superoxide anion radical scavenging activity by measuring rate of epinephrine auto-oxidation at 8.04 uM by spectrophotometric analysis (reference value: 0.0186 +/- 0.004%). Type of test: functional.
Test [12] in a line: Antioxidant activity in pH 7.4 phosphate buffer assessed as DPPH radical scavenging activity after 30 mins by spectrophotometric analysis. Type of test: functional.

The source of these data is ChEMBL document CHEMBL4359836, “Synthesis and Biological Assessment of Pyrrolobenzoxazine Scaffold as a Potent Antioxidant” (J Med Chem, 2019).

A word on the IC50: it is the concentration needed to halve the response being measured.

Calls of active or inactive are those of the source. No cut-off for these calls is given here.

`COC(=O)c1c(-c2cccc(Cl)c2)cn2c1c(=O)oc1ccccc12`: the outcome in test [1] and in [8] was inactive. For the same compound, the Activity result in [2] was “Dose-dependent effect”; in test [4], 90%; in test [5], “Dose-dependent effect”; in [6], < 14%; in test [7], 83%. For the same compound, the IC50 in test [2] stood at 8.4 µM. Further, in test [3], the outcome was Active. Moreover, in [9], the Ratio IC50 is 1.18.

For `CCOC(=O)c1c(-c2ccc(C)cc2)cn2c1c(=O)oc1ccccc12`, the result in test [1] was inactive. Also, the Activity result is “Dose-dependent effect” in [2], “Dose-dependent effect” in test [5], < 14% in test [6] and “Dose-dependent effect” in test [8]. Moreover, the IC50 in [2] was 10.4 µM. For the same compound, the outcome in test [3] was Active. Further, the Ratio IC50 in test [9] stood at 0.95.

Turning to `CCOC(=O)c1c(-c2cc(OC)c(OC)c(OC)c2)cn2c1c(=O)oc1ccccc12`, the outcome in [1] and in test [8] was inactive. Besides, the Activity entry in test [2] is “Dose-dependent effect”; in test [4], 92%; in test [5] it was “Dose-dependent effect”; in test [11] it was 83%; in [6] it was < 14%. Further, the IC50 in [2] turned out to be 4.8 µM. Moreover, the result in test [3] and in [10] was Active. For the same compound, the Ratio IC50 in test [9] was 2.06.

Take `Cc1c(C)c2c(c(C)c1O)CCC(C)(C(=O)O)O2` (stereo unspecified) [TROLOX]: the IC50 in [2] worked out at 9.9 µM; in test [12], 36.4 µM.
